Measured values from patent publication US20140171433A1, “MULTIPLE MYELOMA TREATMENT” (YM Biosciences Australia Pty Ltd, priority 2011, published 2014).
“Also recorded” adds a separate entry of the source. Where two headings read alike, the source gives them in different places.

Assays:
Ras/MAPK = conditions: cited from earlier work; for IL-6 induced activation of Ras/MAPK: refs [20, 22]
Cyclin D2 = conditions: two HMCL, ref [22]; cited from earlier work
AKT = conditions: PTEN mutated OPM2 MM cells, ref [30]; cited from earlier work
p-STAT3 (pY705) [1] = assay: STAT3 phosphorylation in HMCL in coculture with bone marrow stromal cells (HS5 or primary BMSC); assay type: cell-based, human; conditions: 15 minutes coculture with BMSC (with or without contact), co-treatment with 2 μM CYT387
Experimental: (§1) Activation of the JAK/STAT, PI3K/AKT and Ras/MAPK pathways was investigated using intracellular flow cytometry to measure the phosphorylation of STAT3 at tyrosine 705 (p-STAT3), AKT at serine 473 (p-AKT) and ERK1/2 at threonine 202 and tyrosine 204 (p-ERK). HMCL were stimulated alone with 10 ng/ml IL-6±[…] IGF-1 or stimulated in CC with HS5 stromal cells or primary BMSC with or without CYT387 treatment. For CC HS5 and primary BMSC were seeded into a 24 well plate at 2×10^5 cells/ml and allowed to establish for 4 hours, after which HMCL prestained with CD38 or CD138 FITC (BD) were added. MM cells were stimulated alone (10 ng/ml IL-6 or 5 ng/ml IL-6 and 100 ng/ml IGF-1), or in CC (direct CC with stroma or transwell (TW) CC with stroma) with or without either 60 minutes of CYT387 pretreatment or 15 minutes CYT387 co-treatment. After stimulation±treatment, MM cells were harvested and fixed with 2% paraformaldehyde for 10-30 minutes, washed then permeabilised with methanol overnight. Methanol was washed off and the cells were resuspended in p-STAT3 PE (BD), p-AKT PE (BD) or p-ERK (BD) and stained for 45-60 minutes at room temperature. Unbound antibody was washed off and the cells resuspended in 2% FBS PBS and acquired by FACS.

OCI-MY1 = assay: Viable cell number by haemocytometer; assay type: cell-based; conditions: Homo sapiens; OCI-MY1, 0.5 μM, after 72 hours; read-out: inhibition of cell proliferation
Experimental: (§2) The viability and proliferation of CYT387 treated HMCL and untreated/vehicle controls were determined using various methods as described previously. Proliferation was measured first using Celltiter 96 AQeous one solution cell proliferation assay MTS reagent (Promega) on a panel of 8 HMCL. Cells were cultured at 2.0×10^5 cell/ml in 100 μl fresh media in 96 well plates for 24, 48 and 72 hours with CYT387 (0.1-5 μM). 20 μl of MTS reagent was added for the final 4 hours of treatment and the plates were read at 490 nm using a Fluostar Optima plate reader (BMG Labtech). The viable cell numbers of a panel of 5 HMCL that were treated with CYT387 with and without IL-6 co-treatment was also measured by trypan blue staining and haemocytometer count. The HMCL NCI-H929, OCI-MY1 and U266 were then selected for further analysis. Apoptosis of CYT387 treated cells was assessed by FACS with Annexin-V and propidium iodide (PI) staining. HMCLs were treated for 24 or 72 hours with 1 or 5 μM CYT387 then harvested and washed in Annexin Buffer (0.01 HEPES, 0.14 M NaCl, 2.5 mM CaCl2, pH 7.4) and stained with Annexin-V FITC (Biosource) made up in Annexin Buffer for 30 minutes at room temperature. Unbound antibody was then washed off with Atmexin Buffer and cells were resuspended in Annexin Buffer with 62.5 ng/mi PI (Sigma-Aldrich) and analyzed by FACS.

NCI-H929 [2] = assay: Viable cell number by haemocytometer; assay type: cell-based; conditions: Homo sapiens; NCI-H929, 1 μM, after 72 hours; read-out: inhibition of cell proliferation
Experimental: as §2

U266 = assay: Viable cell number by haemocytometer; assay type: cell-based; conditions: Homo sapiens, U-266; U266, 1 μM, after 72 hours; read-out: inhibition of cell proliferation
Experimental: as §2

[3] = tested on: NCI-H929, OCI-MY1 and U266; assay: PI FACS dose effect and synergy (Calcusyn) in HMCL; assay type: cell-based, human; conditions: 24 and 48 hours
Experimental: For the synergy experiments HMCL were treated with CYT387 in combination with bortezomib or melphalan for 24 and 48 hours before being harvested and resuspended in FACS Buffer (0.5% HI FBS in PBS) supplemented with 62.5 ng/ml PI (Sigma-Aldrich). Cells were immediately analysed by FACS. The proportion of PI positive cells was quantitated by subtracting the background death of untreated cells. Single drug treated cells were compared to combination treated cells and synergism was calculated using Calcusyn software (Biosoft).

[4] = tested on: CD38+CD45− primary MM cells; assay: Apoptosis (Apo 2.7) of ex-vivo primary patient MM cells, single agent and combination; assay type: cell-based, human; conditions: 24 hours, Calcusyn
Description: Primary MM samples were obtained from Bone Marrow Aspirates from relapsed and refractory MM patients following written informed consent with approval from the Alfred Hospital Research and Ethics Committee and isolated and treated as previously described. Briefly, bone marrow mononuclear cells (BMMC) were isolated with Ficoll-Paque Plus (Amersham Biosciences), washed in PBS and red blood cells were lysed with NH4Cl solution (8.29 g/L ammonium chloride, 0.037 g/L EDTA, 1 g/L potassium bicarbonate). Cells were then washed again in PBS and quantitated by haemocytometer. BMMC samples were then cultured in complete RPMI-1640 media (as above for HMCL) for 24 hours. Subsequently the BMMC were plated at 5×10^5 cells/ml and were treated with CYT387 (5-50 μM) alone or (dependant on cell numbers) in combination with bortezoniib (5-40 nM) or melphalan (50-200 μM) for 24 and/or 48 hours. Drug-induced MM specific cell apoptosis was then compared to untreated and vehicle controls by staining for CD45 FITC (BD), CD38 PerCP-Cy5.5 (BD) and Apo 2.7 PE (Immunotech) to determine apoptosis in CD45−CD38+ MM cells. Samples were subsequently analyzed by FACS. Primary bone marrow stromal cells (BMSC) were also collected from patient BMMC, cells that adhered to the flask after an initial 24 hour culture were cultured with continued selection for adherent cells over several passages. […]

[5] = tested on: HMCL (NCI-H929, OCI-MY1 and U266); assay: Cell cycle analysis by FACS (PI/RNase); assay type: cell-based, human
Experimental: (§3) The effect of CYT387 treatment on HMCL cell cycling was measured after 24 and 72 hours. CYT387 (1 or 5 μM) treated and untreated HMCL were harvested, washed in PBS and resuspended in 100 μl PBS. Cells were fixed with 1 ml of cold 70% ethanol while being vortexed. Tubes were stored at −20° C. until analysis. Once all samples were collected tubes were centrifuged at 500×g for 10 minutes, the supernatant was carefully removed and the cells washed in 5 ml PBS. After the final wash cells were resuspended 250-500 μl of PI/RNase staining buffer (BD) and incubated in the dark at room temperature for 15 minutes before being analyzed by FAGS.

NCI-H929 cells = assay: Cell cycle analysis by FACS (PI/RNase); assay type: cell-based, human; conditions: after 24 and 72 hours treatment
Experimental: as §3

p-AKT (pS473) = assay: IL-6 and IGF-1 induced p-AKT, intracellular FACS, OCI-MY1; assay type: cell-based, human; conditions: 2 μM CYT387 cotreatment, 15 minutes
Experimental: as §1

NCI-H929 [6] = assay: Annexin-V/Propidium Iodide FACS apoptosis; assay type: cell-based; conditions: Homo sapiens, read-out: reduction in viable cells
Experimental: as §2

p-ERK1/2 (pT202/pY204) = assay: IL-6 and IGF-1 induced p-ERK, intracellular FACS, U266; assay type: cell-based, human; conditions: 2 μM CYT387 cotreatment, 15 minutes
Experimental: as §1

[7] = tested on: HMCL (NCIH929, OCI-MY1 and U266); assay: Annexin-V/Propidium Iodide FACS apoptosis; assay type: cell-based, human; conditions: Annexin-V/PI; 3 HMCL
Experimental: as §2

p-STAT3 (pY705) [8] = assay: IL-6 induced STAT3 phosphorylation in HMCL (intracellular FACS, western blot); assay type: cell-based, human
Experimental: HMCL were treated with CYT387 (1 or 2 μM) for 60 minutes and then stimulated with 10 ng/ml IL-6 for 15 minutes. Protein lysates of CYT387 treated and untreated HMCL were made with RIPA Buffer (50 mM Tris.HCl pH 7.4, 150 mM NaCl, 1 mM PMSF, 1 mM EDTA, 5 μg/ml Aprotinin, 5 μg/ml Leupeptin, 1% Triton X-100, 1% Sodium deoxycholate and 0.1% SDS). Briefly cells were incubated in RIPA buffer on ice for 30-60 minutes before being centrifuged at 16,100×g for 20 minutes at 4° C. and the supernatant collected. Protein concentration was quantified using DC Protein Assay (Bio-Rad) as per manufacturer's instructions. Subsequently, 100 μg of each protein lysate was separated by 10% SDS-PAGE and blotted onto nitrocellulose (Hybond ECL, Amersham) using the Bio-Rad semi-dry transfer system. Membranes were blocked with 5% skim milk powder 0.1% Tween-20/PBS for 60 minutes then incubated with mouse monoclonal antiphospho-STAT3 (pY705, Santa Cruz), mouse monoclonal anti-STAT3 (Santa Cruz) or mouse monoclonal anti-a-tubulin (Sigma-Aldrich) for 1-2 hours at room temperature or overnight at 4° C. The blots were washed three times for 15 minutes in 0.1% Tween-20/PBS, then incubated with secondary HRP lagged antibody (swine anti-rabbit Ig HRP (Dako) or rabbit anti-mouse Ig HRP (Dako)) for 1-2 hours at room temperature before washing as above. […]

[9] = tested on: HMCL (LP-1, NCI-H929, OPM2, RPMI-8226, ANBL-6, OCI-MY1, U266 and XG-1); assay: MTS cell proliferation assay on a panel of 8 HMCL; assay type: cell-based, human
Experimental: as §2

[10] = tested on: HMCL (NCI-H929, OCI-MY1 and U266); assay: Viable cell number by haemocytometer with and without IL-6; assay type: cell-based, human; conditions: CYT387 0.5-1 μM, 10 ng/ml IL-6, 72 hours
Experimental: as §2

[11] = CYT387 in combination with bortezomib
[12] = CYT387 in combination with melphalan

Cc1cc(Nc2nc(N[C@@H](C)c3ncc(F)cn3)ncc2Cl)n[nH]1 [AZD1480]
IL-6 induced activation of Ras/MAPK (Ras/MAPK): reduce IL-6 induced activation of Ras/MAPK | Cyclin D2 (Cyclin D2): inhibited Cyclin D2

N#C/C(=C/c1ccc(O)c(O)c1)C(=O)NCc1ccccc1 [AG490]
IL-6 induced Ras/MAPK activation (Ras/MAPK; in the hands of others, ref [31]): no decrease | IL-6 induced activation of Ras/MAPK (Ras/MAPK): reduce IL-6 induced activation of Ras/MAPK | AKT activation (AKT): could also abrogate AKT activation

N#CCNC(=O)c1ccc(-c2ccnc(Nc3ccc(N4CCOCC4)cc3)n2)cc1 [CYT387, N-(cyanomethyl)-4-[2-[[4-(4-morpholinyl)phenyl]amino]-4-pyrimidinyl]-benzamide]
amount of p-STAT3 in the HMCL (p-STAT3 (pY705) [1]): dramatically reduced the amount of p-STAT3 | inhibition at 0.5 µM (OCI-MY1): 50% | inhibition at 1 µM (NCI-H929 [2]): 50% | inhibition at 1 µM (U266): 44% | apoptosis (PI+ cells), dose effect curves ([3]; CYT387 0.5-10 μM): induced apoptosis in 3 HMCL in a time and dose dependent manner | synergy with bortezomib (combination index, Calcusyn) [3, 11]: displayed synergism; also recorded: synergistic or nearly additive in 18/24 combinations | synergy with melphalan (combination index, Calcusyn) [3, 12]: displayed synergism; also recorded: Synergy is seen | synergy with bortezomib in primary patient cells [4, 11]: synergy was also observed with bortezomib in some patients/doses | synergy with melphalan in primary patient cells [4, 12]: synergize with melphalan in ⅔ patients | cells in the G2/M phase of the cell cycle ([5]; CYT387 1-5 μM, NCI-H929, OCI-MY1 and U266): marked accumulation of cells in the G2/M phase | polyploid population ([5]; CYT387 treated samples): additional polyploid population was found | increase in cells in G2/M compared to untreated or vehicle treated control (NCI-H929 cells): more than a two fold increase | p-AKT activation after IL-6 and IGF-1 stimulation (p-AKT (pS473)): significantly reduced; also recorded: dramatic reduction | cytotoxicity at 5 µM (NCI-H929 [6]; NCI-H929, 5 μM CYT387, 24 hours): 21% | cytotoxicity at 5 µM (NCI-H929 [6]; NCI-H929, 5 μM CYT387, 72 hours): 52% | IL-6 and IGF-1 induced p-ERK (p-ERK1/2 (pT202/pY204)): significantly inhibited; also recorded: significant reduction | proportion of apoptotic cells [7]: increased proportion of apoptotic cells was detected in all 3 HMCL | phosphorylation of STAT3 in IL-6 stimulated samples (p-STAT3 (pY705) [8]; CYT387 0.5-2 μM for 1 hour, then IL-6 for 15 minutes, NCI-H929, OCI-MY1 and U266, FACS and western blotting): inhibited the phosphorylation of STAT3 | Total STAT3 protein (p-STAT3 (pY705) [8]; western blot, CYT387 then IL-6 stimulation): unaffected | most sensitive HMCL to CYT387 treatment (MTS) ([9]; 72 hours): NCI-H929 and XG-1 were the most sensitive | cell proliferation response by MTS assay ([9]; CYT387 0.1-5 μM, 24, 48 and 72 hours, 8 HMCL): Six of 8 HMCL had a time and dose dependent response | proliferation of HMCL in the presence of IL-6 [10]: able to reduce the proliferation of HMCL in culture even in the presence of IL-6
